# Test results taken from ChEMBL document CHEMBL4507261, “Data for DCP probe A-192621” (2021).
# Experiments:
# [1] = tested on: ALK tyrosine kinase receptor (Homo sapiens), Q9UM73 [C1156Y]; conditions: Compound concentration 1000.0 nM
# [2] = molecular target: Calcium/calmodulin-dependent protein kinase type IV (Homo sapiens) (UniProt Q16566); conditions: Compound concentration 1000.0 nM
# [3] = molecular target: Serine/threonine-protein kinase TAO3 (Homo sapiens) (UniProt Q9H2K8); conditions: Compound concentration 1000.0 nM
# [4] = molecular target: Serine/threonine-protein kinase Sgk1 (Homo sapiens) (UniProt O00141); conditions: Compound concentration 1000.0 nM
# [5] = molecular target: Tyrosine-protein kinase ABL1 (Homo sapiens) (UniProt P00519); conditions: Compound concentration 1000.0 nM
# [6] = molecular target: Vasoactive intestinal polypeptide receptor 1 (Homo sapiens) (UniProt P32241); experiment: VPAC1 (VIP1) (h) Eurofins-Cerep binding assay; design: ligand concentration 0.04 nM; conditions: filed as agonist, Compound concentration 10.0 uM
# [7] = molecular target: Serine/threonine-protein kinase OSR1 (Homo sapiens) (UniProt O95747); conditions: Compound concentration 1000.0 nM
# [8] = tested on: Leucine-rich repeat serine/threonine-protein kinase 2 (Homo sapiens), Q5S007 [G2019S]; conditions: Compound concentration 1000.0 nM
# [9] = molecular target: Dual specificity tyrosine-phosphorylation-regulated kinase 1A (Homo sapiens) (UniProt Q13627); conditions: Compound concentration 1000.0 nM
# [10] = molecular target: SRSF protein kinase 1 (Homo sapiens) (UniProt Q96SB4); conditions: Compound concentration 1000.0 nM
# [11] = molecular target: Serine/threonine-protein kinase B-raf (Homo sapiens) (UniProt P15056); conditions: Compound concentration 1000.0 nM
# [12] = molecular target: 3-phosphoinositide-dependent protein kinase 1 (Homo sapiens) (UniProt O15530); conditions: Compound concentration 1000.0 nM
# [13] = molecular target: Mitogen-activated protein kinase kinase kinase 5 (Homo sapiens) (UniProt Q99683); conditions: Compound concentration 1000.0 nM
# [14] = molecular target: Motilin receptor (Homo sapiens) (UniProt O43193); experiment: motilin (h Eurofins-Cerep binding assay; design: ligand concentration 0.05 nM; conditions: filed as agonist, Compound concentration 10.0 uM
# [15] = molecular target: Phosphorylase b kinase gamma catalytic chain, skeletal muscle/heart isoform (Homo sapiens) (UniProt Q16816); conditions: Compound concentration 1000.0 nM
# [16] = molecular target: Endothelin receptor type B (Homo sapiens) (UniProt P24530); experiment: ETB (h) Eurofins-Cerep binding assay; conditions: filed as agonist, Compound concentration 10.0 uM
# [17] = molecular target: Interleukin-1 receptor-associated kinase 1 (Homo sapiens) (UniProt P51617); conditions: Compound concentration 1000.0 nM
# [18] = tested on: Epidermal growth factor receptor (Homo sapiens), P00533 [G719S]; conditions: Compound concentration 1000.0 nM
# [19] = molecular target: Receptor-interacting serine/threonine-protein kinase 1 (Homo sapiens) (UniProt Q13546); conditions: Compound concentration 1000.0 nM
# [20] = molecular target: Cyclin-dependent kinase 19 (Homo sapiens) (UniProt Q9BWU1); conditions: Compound concentration 1000.0 nM
# [21] = molecular target: cGMP-dependent protein kinase 2 (Homo sapiens) (UniProt Q13237); conditions: Compound concentration 1000.0 nM
# [22] = molecular target: Phosphatidylinositol 4,5-bisphosphate 3-kinase catalytic subunit alpha isoform (Homo sapiens) (UniProt P42336); conditions: Compound concentration 1000.0 nM
# [23] = molecular target: 5-hydroxytryptamine receptor 7 (Homo sapiens) (UniProt P34969); experiment: 5-HT7 (h) Eurofins-Cerep binding assay; design: ligand concentration 4 nM; conditions: filed as agonist, Compound concentration 10.0 uM
# [24] = molecular target: Myosin-IIIa (Homo sapiens) (UniProt Q8NEV4); conditions: Compound concentration 1000.0 nM
# [25] = molecular target: Calcium/calmodulin-dependent protein kinase type II subunit beta (Homo sapiens) (UniProt Q13554); conditions: Compound concentration 1000.0 nM
# [26] = molecular target: Fibroblast growth factor receptor 4 (Homo sapiens) (UniProt P22455); conditions: Compound concentration 1000.0 nM
# [27] = molecular target: Calcium/calmodulin-dependent protein kinase type II subunit delta (Homo sapiens) (UniProt Q13557); conditions: Compound concentration 1000.0 nM
# [28] = molecular target: Angiotensin-converting enzyme (Homo sapiens) (UniProt P12821); experiment: ACE (h) Eurofins-Cerep enzyme and uptake assay; conditions: Compound concentration 10.0 uM
# [29] = molecular target: Sodium/potassium-transporting ATPase (Sus scrofa) (UniProt P05027+P05024+D2WKD8+D2WKD7+F1ST41); experiment: ATPase (Na+/K+) Eurofins-Cerep enzyme and uptake assay; format: protein-complex assay; conditions: Compound concentration 10.0 uM
# [30] = molecular target: Serine/threonine-protein kinase 32A (Homo sapiens) (UniProt Q8WU08); conditions: Compound concentration 1000.0 nM
# [31] = molecular target: Cyclin-dependent kinase 11B (Homo sapiens) (UniProt P21127); conditions: Compound concentration 1000.0 nM
# [32] = molecular target: Neuropeptide Y receptor type 1 (Homo sapiens) (UniProt P25929); experiment: Y1 (h) Eurofins-Cerep binding assay; design: ligand concentration 0.025 nM; conditions: filed as agonist, Compound concentration 10.0 uM
# [33] = molecular target: MAO-B (amine oxidase [flavin-containing] B) (Homo sapiens, UniProt P27338); experiment: MAO-B (h) recombinant enzyme Eurofins-Cerep enzyme and uptake assay; design: incubation time 60 min, incubation temperature 37°C, substrate/stimulus/tracer D-Luciferin derivative (4 µM); conditions: probe D-Luciferin derivative (4 µM), compound concentration 10 uM, read-out: % Inhibition of Control Values (Mean n=2)
# [34] = molecular target: MAP kinase-activated protein kinase 2 (Homo sapiens) (UniProt P49137); conditions: Compound concentration 1000.0 nM
# [35] = molecular target: Ankyrin repeat and protein kinase domain-containing protein 1 (Homo sapiens) (UniProt Q8NFD2); conditions: Compound concentration 1000.0 nM
# [36] = molecular target: Receptor-type tyrosine-protein kinase FLT3 (Homo sapiens) (UniProt P36888); conditions: Compound concentration 1000.0 nM
# [37] = molecular target: Mitogen-activated protein kinase 6 (Homo sapiens) (UniProt Q16659); conditions: Compound concentration 1000.0 nM
# [38] = molecular target: Serine/threonine-protein kinase DCLK2 (Homo sapiens) (UniProt Q8N568); conditions: Compound concentration 1000.0 nM
# [39] = molecular target: Tyrosine-protein kinase Fes/Fps (Homo sapiens) (UniProt P07332); conditions: Compound concentration 1000.0 nM
# [40] = molecular target: Adenosine receptor A1 (Homo sapiens) (UniProt P30542); experiment: A1 (h) Eurofins-Cerep binding assay; design: ligand concentration 1 nM; conditions: filed as antagonist, Compound concentration 10.0 uM
# [41] = molecular target: Cyclin-dependent kinase 16 (Homo sapiens) (UniProt Q00536); conditions: Compound concentration 1000.0 nM
# [42] = molecular target: Serine/threonine-protein kinase PAK 2 (Homo sapiens) (UniProt Q13177); conditions: Compound concentration 1000.0 nM
# [43] = tested on: Serine/threonine-protein kinase B-raf (Homo sapiens), P15056 [V600E]; conditions: Compound concentration 1000.0 nM
# [44] = molecular target: Bone morphogenetic protein receptor type-1A (Homo sapiens) (UniProt P36894); conditions: Compound concentration 1000.0 nM
# Chain of Cyclin-dependent kinase 19 (Homo sapiens) (Q9BWU1 whole entry): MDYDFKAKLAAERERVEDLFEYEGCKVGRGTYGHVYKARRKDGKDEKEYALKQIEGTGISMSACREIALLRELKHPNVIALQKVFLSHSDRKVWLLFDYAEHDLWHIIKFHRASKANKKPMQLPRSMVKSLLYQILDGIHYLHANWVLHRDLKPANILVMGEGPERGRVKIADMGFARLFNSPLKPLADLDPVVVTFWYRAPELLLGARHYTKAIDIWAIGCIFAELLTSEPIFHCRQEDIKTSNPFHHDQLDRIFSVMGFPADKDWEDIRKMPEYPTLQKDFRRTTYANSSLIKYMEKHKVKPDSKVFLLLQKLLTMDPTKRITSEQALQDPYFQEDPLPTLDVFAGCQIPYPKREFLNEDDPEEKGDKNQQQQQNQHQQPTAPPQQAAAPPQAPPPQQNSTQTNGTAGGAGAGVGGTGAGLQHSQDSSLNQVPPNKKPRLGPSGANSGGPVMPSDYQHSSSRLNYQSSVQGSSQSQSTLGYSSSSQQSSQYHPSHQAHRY
# Chain of Leucine-rich repeat serine/threonine-protein kinase 2 (Homo sapiens), Q5S007 [G2019S] (Q5S007 whole entry G2019S): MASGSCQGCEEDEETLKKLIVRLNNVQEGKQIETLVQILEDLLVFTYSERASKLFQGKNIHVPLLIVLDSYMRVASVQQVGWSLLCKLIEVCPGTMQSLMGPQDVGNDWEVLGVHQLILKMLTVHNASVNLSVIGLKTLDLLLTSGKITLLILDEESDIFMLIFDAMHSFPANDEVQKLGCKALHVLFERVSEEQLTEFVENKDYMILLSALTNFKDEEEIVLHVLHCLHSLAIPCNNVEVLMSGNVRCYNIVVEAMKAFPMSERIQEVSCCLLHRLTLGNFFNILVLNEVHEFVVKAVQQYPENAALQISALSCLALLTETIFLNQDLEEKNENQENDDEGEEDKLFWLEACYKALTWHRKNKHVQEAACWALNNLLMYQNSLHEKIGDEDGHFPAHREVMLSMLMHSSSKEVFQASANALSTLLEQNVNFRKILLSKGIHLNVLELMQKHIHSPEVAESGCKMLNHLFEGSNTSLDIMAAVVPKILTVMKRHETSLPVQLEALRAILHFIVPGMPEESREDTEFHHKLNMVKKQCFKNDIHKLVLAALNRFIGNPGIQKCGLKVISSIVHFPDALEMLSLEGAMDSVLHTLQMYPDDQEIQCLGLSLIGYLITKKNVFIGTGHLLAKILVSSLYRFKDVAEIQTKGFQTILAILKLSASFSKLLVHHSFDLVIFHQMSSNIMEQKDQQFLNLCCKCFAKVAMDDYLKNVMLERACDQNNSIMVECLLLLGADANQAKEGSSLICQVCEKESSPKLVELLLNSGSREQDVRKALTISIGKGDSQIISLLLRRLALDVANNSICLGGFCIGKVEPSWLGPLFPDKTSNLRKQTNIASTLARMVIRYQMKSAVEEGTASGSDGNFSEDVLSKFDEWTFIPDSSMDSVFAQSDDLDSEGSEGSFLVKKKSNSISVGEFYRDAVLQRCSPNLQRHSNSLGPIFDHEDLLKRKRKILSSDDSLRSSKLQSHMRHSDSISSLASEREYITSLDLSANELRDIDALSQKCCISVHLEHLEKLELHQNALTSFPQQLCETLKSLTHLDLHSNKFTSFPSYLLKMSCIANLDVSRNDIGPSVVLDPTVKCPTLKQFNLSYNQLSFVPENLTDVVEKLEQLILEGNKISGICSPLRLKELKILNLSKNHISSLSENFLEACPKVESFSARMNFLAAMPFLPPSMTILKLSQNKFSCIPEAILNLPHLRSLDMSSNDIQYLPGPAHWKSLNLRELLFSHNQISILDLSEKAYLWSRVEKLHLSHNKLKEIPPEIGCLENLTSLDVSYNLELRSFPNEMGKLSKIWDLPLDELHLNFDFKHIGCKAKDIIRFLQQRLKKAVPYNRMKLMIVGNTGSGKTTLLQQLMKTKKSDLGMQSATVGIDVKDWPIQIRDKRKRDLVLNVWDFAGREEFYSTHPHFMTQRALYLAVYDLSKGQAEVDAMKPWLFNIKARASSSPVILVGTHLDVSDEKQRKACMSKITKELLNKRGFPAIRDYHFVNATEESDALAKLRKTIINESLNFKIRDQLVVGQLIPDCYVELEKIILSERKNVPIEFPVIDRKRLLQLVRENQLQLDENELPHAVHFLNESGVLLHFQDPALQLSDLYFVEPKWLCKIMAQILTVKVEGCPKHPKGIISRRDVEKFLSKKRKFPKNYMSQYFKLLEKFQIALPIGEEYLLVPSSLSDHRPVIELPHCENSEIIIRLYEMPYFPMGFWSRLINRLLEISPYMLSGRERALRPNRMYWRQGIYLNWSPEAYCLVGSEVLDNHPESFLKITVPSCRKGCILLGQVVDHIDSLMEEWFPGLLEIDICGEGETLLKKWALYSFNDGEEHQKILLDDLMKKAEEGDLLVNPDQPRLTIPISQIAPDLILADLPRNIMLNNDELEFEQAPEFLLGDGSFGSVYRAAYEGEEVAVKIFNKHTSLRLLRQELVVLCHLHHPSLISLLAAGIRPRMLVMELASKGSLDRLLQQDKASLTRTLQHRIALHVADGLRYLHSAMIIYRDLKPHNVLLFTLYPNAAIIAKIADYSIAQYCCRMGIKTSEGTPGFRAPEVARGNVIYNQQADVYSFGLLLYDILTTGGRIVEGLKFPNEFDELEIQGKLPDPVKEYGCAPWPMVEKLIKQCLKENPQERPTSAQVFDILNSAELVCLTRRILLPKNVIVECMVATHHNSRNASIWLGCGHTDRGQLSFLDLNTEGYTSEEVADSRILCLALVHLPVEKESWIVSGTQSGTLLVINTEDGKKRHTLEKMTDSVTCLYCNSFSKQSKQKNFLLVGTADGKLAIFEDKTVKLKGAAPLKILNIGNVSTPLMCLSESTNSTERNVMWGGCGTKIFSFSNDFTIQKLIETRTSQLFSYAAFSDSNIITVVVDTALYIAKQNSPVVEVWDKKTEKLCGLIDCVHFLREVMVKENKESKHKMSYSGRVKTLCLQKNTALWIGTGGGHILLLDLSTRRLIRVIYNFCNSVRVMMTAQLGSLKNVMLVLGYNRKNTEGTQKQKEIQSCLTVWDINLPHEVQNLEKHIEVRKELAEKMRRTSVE
# Chain of MAO-B (amine oxidase [flavin-containing] B) (P27338 whole entry): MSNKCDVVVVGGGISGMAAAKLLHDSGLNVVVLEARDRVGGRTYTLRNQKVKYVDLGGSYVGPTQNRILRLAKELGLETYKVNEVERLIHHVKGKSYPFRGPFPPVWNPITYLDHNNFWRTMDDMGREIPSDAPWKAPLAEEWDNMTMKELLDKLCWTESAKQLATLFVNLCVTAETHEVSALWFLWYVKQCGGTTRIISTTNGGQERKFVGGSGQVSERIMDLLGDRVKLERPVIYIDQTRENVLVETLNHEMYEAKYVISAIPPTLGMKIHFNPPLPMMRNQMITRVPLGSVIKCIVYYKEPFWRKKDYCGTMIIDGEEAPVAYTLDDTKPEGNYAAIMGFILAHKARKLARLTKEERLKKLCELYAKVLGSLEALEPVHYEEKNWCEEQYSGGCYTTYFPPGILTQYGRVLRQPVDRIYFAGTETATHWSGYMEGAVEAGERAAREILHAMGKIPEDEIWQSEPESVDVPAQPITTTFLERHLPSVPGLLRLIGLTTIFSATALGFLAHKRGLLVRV
# Chain of SRSF protein kinase 1 (Homo sapiens) (Q96SB4 whole entry): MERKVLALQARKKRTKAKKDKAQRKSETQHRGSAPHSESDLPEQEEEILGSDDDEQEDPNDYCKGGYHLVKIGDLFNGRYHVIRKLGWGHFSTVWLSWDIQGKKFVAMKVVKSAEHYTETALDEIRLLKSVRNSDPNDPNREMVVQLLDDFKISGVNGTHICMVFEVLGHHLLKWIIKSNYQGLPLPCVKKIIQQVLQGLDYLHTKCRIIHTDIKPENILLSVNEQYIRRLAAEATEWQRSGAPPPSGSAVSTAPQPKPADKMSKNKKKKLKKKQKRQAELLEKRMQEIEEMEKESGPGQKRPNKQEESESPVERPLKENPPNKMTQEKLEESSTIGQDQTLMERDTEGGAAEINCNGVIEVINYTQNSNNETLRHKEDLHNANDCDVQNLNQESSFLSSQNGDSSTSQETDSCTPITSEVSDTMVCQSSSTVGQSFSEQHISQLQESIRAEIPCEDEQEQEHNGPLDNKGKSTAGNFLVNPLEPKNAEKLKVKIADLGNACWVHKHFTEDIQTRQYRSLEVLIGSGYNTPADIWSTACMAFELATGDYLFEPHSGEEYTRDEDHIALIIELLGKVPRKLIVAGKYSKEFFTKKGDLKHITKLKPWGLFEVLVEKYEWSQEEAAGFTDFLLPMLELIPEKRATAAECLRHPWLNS
# Chain of Serine/threonine-protein kinase B-raf (Homo sapiens) (P15056 whole entry): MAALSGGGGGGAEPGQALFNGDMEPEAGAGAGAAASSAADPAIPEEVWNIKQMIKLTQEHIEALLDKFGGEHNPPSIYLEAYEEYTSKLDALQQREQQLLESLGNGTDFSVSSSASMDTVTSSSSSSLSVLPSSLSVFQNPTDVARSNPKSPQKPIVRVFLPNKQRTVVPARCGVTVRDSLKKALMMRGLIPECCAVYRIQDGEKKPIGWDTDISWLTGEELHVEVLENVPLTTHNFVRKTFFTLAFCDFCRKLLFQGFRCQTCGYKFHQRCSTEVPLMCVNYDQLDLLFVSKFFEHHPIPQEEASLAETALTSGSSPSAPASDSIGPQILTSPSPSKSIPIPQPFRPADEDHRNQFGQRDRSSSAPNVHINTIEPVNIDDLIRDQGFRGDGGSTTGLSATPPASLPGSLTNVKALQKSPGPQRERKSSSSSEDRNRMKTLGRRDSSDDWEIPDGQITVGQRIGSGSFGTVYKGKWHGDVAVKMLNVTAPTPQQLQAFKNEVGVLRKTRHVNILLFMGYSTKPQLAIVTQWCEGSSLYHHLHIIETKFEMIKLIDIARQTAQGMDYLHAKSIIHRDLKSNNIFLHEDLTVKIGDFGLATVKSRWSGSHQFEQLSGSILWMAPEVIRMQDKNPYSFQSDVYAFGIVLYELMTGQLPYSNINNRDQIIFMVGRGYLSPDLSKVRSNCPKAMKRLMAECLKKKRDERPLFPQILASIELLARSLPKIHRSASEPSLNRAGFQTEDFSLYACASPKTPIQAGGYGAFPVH
# Chain of Serine/threonine-protein kinase B-raf (Homo sapiens), P15056 [V600E] (P15056 whole entry V600E): as the sequence (P15056 whole entry) above, with V600E counted along it
structure (smiles),measurement,setting,value
CCCOc1ccc([C@H]2[C@H](C(=O)O)[C@@H](c3ccc4c(c3)OCO4)CN2CC(=O)Nc2c(CC)cccc2CC)cc1 [A-192621],residual activity,[1],98%
same,residual activity,[2],89%
same,residual activity,[3],81%
same,residual activity,[4],63%
same,residual activity,[5],73%
same,% Inhibition of Control Specific Binding (Mean n=2),[6],-7.7%
same,residual activity,[7],75%
same,residual activity,[8],91%
same,residual activity,[9],73%
same,residual activity,[10],95%
same,residual activity,[11],80%
same,residual activity,[12],100%
same,residual activity,[13],91%
same,% Inhibition of Control Specific Binding (Mean n=2),[14],-17.9%
same,residual activity,[15],99%
same,% Inhibition of Control Specific Binding (Mean n=2),[16],94.7%
same,residual activity,[17],67%
same,residual activity,[18],89%
same,residual activity,[19],88%
same,residual activity,[20],95%
same,residual activity,[21],82%
same,residual activity,[22],80%
same,% Inhibition of Control Specific Binding (Mean n=2),[23],1.9%
same,residual activity,[24],100%
same,residual activity,[25],99%
same,residual activity,[26],87%
same,residual activity,[27],93%
same,% Inhibition of Control Values (Mean n=2),[28],-12.6%
same,% Inhibition of Control Values (Mean n=2),[29],0.7%
same,residual activity,[30],93%
same,residual activity,[31],100%
same,% Inhibition of Control Specific Binding (Mean n=2),[32],-9.3%
same,"inhibition at 60 min, 10 µM",[33],-12.3%
same,residual activity,[34],100%
same,residual activity,[35],65%
same,residual activity,[36],87%
same,residual activity,[37],92%
same,residual activity,[38],77%
same,residual activity,[39],96%
same,% Inhibition of Control Specific Binding (Mean n=2),[40],8.3%
same,residual activity,[41],77%
same,residual activity,[42],94%
same,residual activity,[43],76%
same,residual activity,[44],100%
CCCOc1ccc([C@@H]2[C@@H](C(=O)O)[C@H](c3ccc4c(c3)OCO4)CN2CC(=O)Nc2c(CC)cccc2CC)cc1 [A-1806262],residual activity,[1],79%
same,residual activity,[2],96%
same,residual activity,[3],100%
same,residual activity,[4],75%
same,residual activity,[5],80%
same,% Inhibition of Control Specific Binding (Mean n=2),[6],-1.5%
same,residual activity,[7],79%
same,residual activity,[8],84%
same,residual activity,[9],86%
same,residual activity,[10],94%
same,residual activity,[11],96%
same,residual activity,[12],100%
same,residual activity,[13],97%
same,% Inhibition of Control Specific Binding (Mean n=2),[14],4.4%
same,residual activity,[15],97%
same,% Inhibition of Control Specific Binding (Mean n=2),[16],96.7%
same,residual activity,[17],96%
same,residual activity,[18],100%
same,residual activity,[19],55%
same,residual activity,[20],89%
same,residual activity,[21],83%
same,residual activity,[22],84%
same,% Inhibition of Control Specific Binding (Mean n=2),[23],0.4%
same,residual activity,[24],100%
same,residual activity,[25],88%
same,residual activity,[26],93%
same,residual activity,[27],88%
same,% Inhibition of Control Values (Mean n=2),[28],-13.7%
same,% Inhibition of Control Values (Mean n=2),[29],0.6%
same,residual activity,[30],85%
same,residual activity,[31],94%
same,% Inhibition of Control Specific Binding (Mean n=2),[32],-5.6%
same,"inhibition at 60 min, 10 µM",[33],-14.5%
same,residual activity,[34],100%
same,residual activity,[35],73%
same,residual activity,[36],100%
same,residual activity,[37],59%
same,residual activity,[38],85%
same,residual activity,[39],97%
same,% Inhibition of Control Specific Binding (Mean n=2),[40],4.2%
same,residual activity,[41],89%
same,residual activity,[42],100%
same,residual activity,[43],98%
same,residual activity,[44],89%
